Laboratory results: patent publication US10793554B2, “Solid forms of 4-(2-fluoro-4-(1-methyl-1H-benzo[d]imidazol-5-yl)benzoyl)piperazin-1-yl)(1-hydroxycyclopropyl)methanone” (FORMA Therapeutics, Inc., priority 2018, dated 2020)
In brackets after ≈: the same amount, converted by molar mass. Entries after “also recorded” stand apart in the source; their conditions may differ.

What was measured:
Assay type in all cases: physicochemical
[1] = Chemical stability study at elevated temperature and controlled relative humidity
Protocol: A study was conducted on a sample of Compound 1 (Form B) where samples were exposed (open) to a range of elevated temperatures (50-80° C.) and controlled relative humidity (RH) (0-80% RH).

[2] = Slurry competition of Form B and Form C at different water activity (XRPD); conditions: for Results (solid form after slurry competition): 4 days
Protocol: (§1) High resolution XRPD experiments were performed with Panalytical X′Pert^3 Powder XRPD on a Si zero-background holder. The 2θposition was calibrated against Panalytical 640 Si powder standard.
Form C was dissolved in three solvent mixtures (see Table 7) to get saturated solutions. Similar mass of Form B and Form C were added into the saturated solutions. The suspensions obtained were stirred at room temperature for 4 days and the solids collected were analyzed with XRPD.

[3] = Kinetic solubility of Form B in formulation (0.5% MC, 0.5% Tween 80 in water), HPLC; conditions: 0.5% MC and 0.5% Tween 80 in water
Protocol: High Pressure Liquid Chromatography (HPLC) data was obtained according to Table 5, below:
(§2) Kinetic solubility and phase stability of Form B was tested in a formulation (0.5% methyl cellulose (MC) and 0.5% Tween 80 in water). The sample was monitored by XRPD at 1, 2, 4 and 24 hours for phase stability. […] Kinetic solubility of Form B was measured in the same formulation at time points of 1, 2, 4 and 24 hour (Table 8). The supernatant was obtained by filtration and the concentration was measured by HPLC.

[4] = Dynamic Vapor Sorption (DVS) of Form B
Source text: DVS was obtained using a Surface Measurement System (SMS) DVS Intrinsic. The details of the method are providing in Table 4, below:
The sample was non-hygroscopic.

[5] = Phase stability of Form B in formulation (XRPD); conditions: after 24 h; 0.5% MC and 0.5% Tween 80 in water
Protocol: as §1, §2

[6] = Slurry stability evaluation of Mixture A (XRPD of collected solids); conditions: 4 days
Protocol: as §1
The solids collected were analyzed by XRPD to confirm the form change.

With `Cn1cnc2cc(-c3ccc(C(=O)N4CCN(C(=O)C5(O)CC5)CC4)c(F)c3)ccc21` [Compound 1, (4-(2-fluoro-4-(1-methyl-1H-benzo[d]imidazol-5-yl)benzoyl)piperazin-1-yl)(1-hydroxycyclopropyl)methanone] the estimated shelf life ([1]; 25° C./60% RH, Form B sample) was “greater than 5 years” and the chemical stability ([1]; Form B sample exposed open to 50-80° C., 0-80% RH) was “good chemical stability”.
For `Cn1cnc2cc(-c3ccc(C(=O)N4CCN(C(=O)C5(O)CC5)CC4)c(F)c3)ccc21` [Form B and Form C, (4-(2-fluoro-4-(1-methyl-1H-benzo[d]imidazol-5-yl)benzoyl)piperazin-1-yl)(1-hydroxycyclopropyl)methanone], the “Results (solid form after slurry competition)” value ([2]; H2O/MeOH (85:915 v/v), Aw 0.25, RT) was “Form B”, the “Results (solid form after slurry competition)” value ([2]; H2O/MeOH (225:775 v/v), Aw 0.5, RT) was “Form B” and the “Results (solid form after slurry competition)” value ([2]; H2O/MeOH (494:506 v/v), Aw 0.75, 50° C.) was “Form B”. For the same compound, the “form conversion in slurry competition (summary)” value ([2]; H2O/MeOH mixtures, Aw 0.25-0.75, 4 days) was “converted completely to Form B”.
In the case of `Cn1cnc2cc(-c3ccc(C(=O)N4CCN(C(=O)C5(O)CC5)CC4)c(F)c3)ccc21` [Form B, (4-(2-fluoro-4-(1-methyl-1H-benzo[d]imidazol-5-yl)benzoyl)piperazin-1-yl)(1-hydroxycyclopropyl)methanone], the solubility at 1 h ([3]; 0.5% methyl cellulose and 0.5% Tween 80 in water, aqueous with cosolvent or surfactant or cyclodextrin, thermodynamic from solid, 1 h, RT) is reported as 62 µg/mL (≈ 147 µM), the solubility at 2 h ([3]; 0.5% methyl cellulose and 0.5% Tween 80 in water, aqueous with cosolvent or surfactant or cyclodextrin, thermodynamic from solid, 2 h, RT) is reported as 62 µg/mL (≈ 147 µM) and the solubility at 4 h ([3]; 0.5% methyl cellulose and 0.5% Tween 80 in water, aqueous with cosolvent or surfactant or cyclodextrin, thermodynamic from solid, 4 h, RT) is reported as 63 µg/mL (≈ 149 µM). The solubility at 24 h ([3]; 0.5% methyl cellulose and 0.5% Tween 80 in water, aqueous with cosolvent or surfactant or cyclodextrin, thermodynamic from solid, 24 h, RT) was 60 µg/mL (≈ 142 µM), the “Purity of solubility sample” value ([3]; 1 h) was 97.8 % area at 240 nm and the “Purity of solubility sample” value ([3]; 2 h) was 97.8 % area at 240 nm. For the same compound, the “Purity of solubility sample” value ([3]; 4 h) was 97.7 % area at 240 nm, the “Purity of solubility sample” value ([3]; 24 h) was 97.7 % area at 240 nm and the “course of solubility over time” value ([3]; during 24 hours at RT) was “remained stable”. The “degradation in the solubility sample / vehicle” value ([3]; up to 24 h) was “No significant degradation; also recorded: no form change or significant degradation”, the “form change before and after DVS (XRPD)” value [4] was “no form change” and the “hygroscopicity (DVS)” value ([4]; 25° C.) was “non-hygroscopic”. For the same compound, the “mass change (DVS)” value ([4]; from 0% RH to 95% RH at 25° C.) was 0.46 wt % and the “phase transformation / form change in formulation (XRPD)” value [5] was “no phase transformation; also recorded: no form change”.
In the case of `Cn1cnc2cc(-c3ccc(C(=O)N4CCN(C(=O)C5(O)CC5)CC4)c(F)c3)ccc21` [Mixture A, (4-(2-fluoro-4-(1-methyl-1H-benzo[d]imidazol-5-yl)benzoyl)piperazin-1-yl)(1-hydroxycyclopropyl)methanone], the “Results (solid form after slurry)” value ([6]; ACN, 50° C.) is reported as “Form B”, the “Results (solid form after slurry)” value ([6]; ACN, RT) is reported as “Form B” and the “form conversion of solids from the slurries (summary)” value ([6]; EtOAc or ACN, RT or 50° C.) is reported as “converted to Form B completely”. For the same compound, the “Results (solid form after slurry)” value ([6]; EtOAc, 50° C.) was “Form B” and the “Results (solid form after slurry)” value ([6]; EtOAc, RT) was “Form B”.
